Like-named read-outs stand apart in the source and are kept apart here. *1 amine or outer side, *2 acyl side, *3 side chain or, on linkers, in order; H or OH if unused. Where a SMILES comes first, the peptide text is derived from it. Bridges are numbered along the chain shown (N, C = ends). Roman numbers before positions name the chains, in order. [ ]: non-standard residue; d: D form. Actinocin(9to1) = Cc1c2oc3c(C)ccc(C(=O)[*:1])c3nc-2c(C(=O)[*:2])c(N)c1=O; NMeV = CN[C@H](C(=O)O)C(C)C; Sar = CNCC(=O)O
Assays:
[1] = test system: rat sympathetic neurons; experiment: OP-1 induced dendritic growth of rat sympathetic neurons; format: cell-based; conditions: for inhibition of OP-1 induced dendritic growth: reversible peptidyl aldehyde inhibitors
Protocol: If Smad1 and DPC4 signal through proteasome mediated proteolysis, proteasome inhibitors should block the signaling of BMPs. We thus directly tested the effects of the proteasome inhibitors on the signaling pathways of BMPs that signal via Smad1 activation. […] The EC50 for the inhibitory activity of lactacystin was ˜100 nM and maximal effects were obtained with 4-6 hour pretreatments (not shown).
To determine the time course of sensitivity to lactacystin with respect to the signaling pathway of OP-1, lactacystin was added to the media at various time points after the addition of OP-1 (FIG. 32, bottom panel B).

[2] = test system: SNIP-1 protein level; experiment: ALK3Q233D-induced degradation of SNIP-1 in transfected COS cells, Western blot; format: cell-based; conditions: inhibitors added 10 hours before cell lysis; ALK3Q233D transfected COS cells
Source text: The novel Smad1 interactor is a nuclear proteip (termed as Smad1 Nuclear Interactor Protein 1, SNIP-1, SEQ ID No. 3), with a carboxyterminal domain that is highly homologous to the aminoterminus of the nuclear inhibitor of protein phosphatase 1 (NIPP-1) (Wang & Lechleider, unpublished) (FIG. 31A & C). NIPP-1 (VanEynde et al., 1995) is known to be rapidly processed into smaller heat-stable intermediates, a process that may be mediated by proteasome (see Discussion in Jagiello et al., 1995). SNIP-1 is a strong interactor of Smad1, that also binds to both antizyme and HsN3 in the yeast two-hybrid assays (FIG. 311B).
Forty-eight hours after transfection, COS cells were lysed in an equal volume of lysis buffer (300 ul/plate), and the total protein concentration of each sample was measured. No major difference in protein concentration was detected among the lysates. The protein level of SNIP-1 in 100 ug of total protein lysate was determined by Western blot using anti-T7 monoclonal antibody. […] Such a decrease is dependent upon the coexpression of Smad1, DPC4 and antizyme, since replacing each of these three proteins with an unrelated protein (β galactosidase) abolishes such a decrease in ALK3Q233D transfected cells (FIG. 31D, top panel, lanes 9-14). […] The total amount of proteins in the tested lanes was normalized before loading, and equal loading was confirmed by Western blot using anti-a tubulin (FIG. 31D, bottom panel).
To determine whether the decrease in the level of SNIP-1 protein level is caused by proteasome mediated degradation, we used inhibitors of the proteasome. Proteasome inhibitors that selectively block different proteolytic activities of the proteasome are powerful tools for studying the role of proteasomes in many aspects of cell growth, differentiation and apoptosis (Hilt et al., 1993; Palomebella et al., 1994; Figueiredo-Pereira et al., 1994; Thraenckner et al., 1994; Read et al., 1995; Grimm et al., 1996, for reviews, see Coux et al., 1996). […]

[3] = test system: endogenous HEF1; experiment: TGF-β regulation of endogenous HEF1 in A549 lung carcinoma cells; format: cell-based
Protocol: In A549 lung carcinoma cells, which predominantly express p115HEF1, a decrease of endogenous p115HEF1 was detected after 15 min exposure to TGF-β. Furthermore, LLnL was able to block the TGF-β induced decrease of endogenous HEF1, indicating the involvement of the proteasome in this event. The change of p105HEF1 in response to TGF-β was also observed, but not as apparent as p115HEF1 due to the very low level of p105HEF1 in this cell line. It was noted that the steady-state level of both p115HEF1 and p105HEF1 increased after 3 hrs of TGF-β stimulation. […] To directly test this, we performed a time-course Northern blot on HEF1 mRNA isolated from A549 cells treated with TGF-β for different time periods. […] Thus, TGF-β down-regulates HEF1 protein level via proteasomal degradation and also induces HEF1 mRNA level via transcriptional activation, which may serve as a negative feedback mechanism to restore HEF1 protein level.

[4] = test system: biological activities of BMPs and TGF-beta; experiment: Inhibition of the biological activities of BMPs and TGF-beta (summary statement)
[5] = test system: calpain, cathepsin B, chymotrypsin, trypsin and papain; conditions: cited from earlier work
[6] = test system: HEF1 protein level; experiment: Smad3-induced proteasomal degradation of HEF1 in 293 cells; format: cell-based; conditions: for Smad3-induced reduction (degradation) of HEF1 protein level: 293 cells, presence or absence of type I receptors
Source text: Two different forms of HEF1, p115HEF1 and p105HEF1, have been previously reported to be derived from differential phosphorylation (Law et al., 1996, Mol. Cell. Boil. 16: 3327; Minegishi et al., 1996, J. Exp. Med. 184: 1365; Lae et al., 1998, supra). Both forms of HEF1 were detected at a similar level in 293 cells after HEF1 transfection for 24 hrs (data not shown). However, p115HEF1 was the predominant form that associates with Smad3, and to a much lesser extent, with Smad1 and Smad2. Neither p115HEF1 nor p105HEF1 was detected in the immunoprecipitates of Smad4.
It was tested whether the observed reduction of HEF1 level by Smad3 is regulated by TGF-β and activin type I receptor activation and whether the reduction is mediated by proteasomal degradation. The Smad3-mediated reduction of HEF1 protein level was further enhanced in the presence of the overexpressed wildtype TGF-β type I receptor and wildtype activin type I receptor, as well as the constitutively active mutant TGF-β type I receptor (R4T204D) and the activated mutant activin type I receptor (R2T206D)). […]
Like other Smad family proteins, Smad3 can be divided into three subdomains: an amino-terminal MH1 domain, a central linker region and a carboxyl-terminal MH2 domain The N-terminal MH1 domain of Smad3 (Smad3N) has the ability to bind to specific DNA sequences (Massague, 1998, supra; Derynck et al., 1998, Cell 95: 737; Wrana, 2000, Cell 100: 189), whereas the C-terminal MH2 domain interacts with the TGF-β type I receptor as well as multiple transcriptional regulators (Massague, 1998, supra; Derynck, 1998, supra; Wrana, 2000, supra). […] In cells that were not treated with LLnL, p115HEF1 and smaller amount of p105HEF1 were detected in the immunoprecipitates of Smad3N, Smad3C and full length Smad3, with the strongest HEF1 signal detected in the immunoprecipitates of Smad3C. […] In fact, when LLnL stabilizes HEF1, the highest amount of HEF1 was detected in the immunoprecipitates of full length Smad3. […]

[7] = test system: ischemic brain injury; conditions: cited from earlier work
[8] = test system: ischemic brain injury; conditions: single ICV injection of 1 μg/kg at 2, 4 or 6 hour before; assessed 48 hours after injury; cited from earlier work
[9] = test system: ischemic brain injury; conditions: cited from earlier work; remark: listed apart in the source
[10] = test system: HEF1 mRNA; experiment: Induction of HEF1 mRNA in HaCaT cells; format: cell-based
[11] = test system: endogenous HEF1; experiment: TGF-β regulation of endogenous HEF1 in H9 cells, Western blot and pulse chase; format: cell-based, human
Protocol: The ability of TGF-β to regulate the protein level of endogenous HEF1 in TGF-β responsive cells was tested. The human T lymphoblastoid H9 cells were either not exposed to TGF-β or pre-treated with TGF-β for different time periods. Cells were then harvested at the same time and HEF1 protein level was determined by Western blot using anti-HEF1 antibody. […] The predominant form of HEF1 labeled within the 30 min pulse period is p105HEF1. The pulse-labeled p105HEF1 was reduced to basal level within 60 min in TGF-β-stimulated cells but took more than 120 min in the absence of TGF-β. Thus, TGF-β can enhance HEF1 degradation in native H9 cells.

[12] = test system: proteasome; conditions: LLnL versus LLM; cited from earlier work

CSCCC(C=O)NC(=O)C(CC(C)C)NC(=O)C(CC(C)C)NC(C)=O (stereo not drawn) [LLM] (Ac-Leu-Leu-Met-aldehyde; configuration not given here)
inhibition of OP-1 induced dendritic growth [1]: Inhibition of OP-1 induced dendritic growth was also observed
ALK3Q233D induced decrease of SNIP-1 protein level [2]: reversed

Cc1c2oc3c(C)ccc(C(=O)N[C@@H]4C(=O)N[C@H](C(C)C)C(=O)N5CCC[C@H]5C(=O)N(C)CC(=O)N(C)[C@@H](C(C)C)C(=O)O[C@@H]4C)c3nc-2c(C(=O)N[C@@H]2C(=O)N[C@H](C(C)C)C(=O)N3CCC[C@H]3C(=O)N(C)CC(=O)N(C)[C@@H](C(C)C)C(=O)O[C@@H]2C)c(N)c1=O [actinomycin D, reference compound] (I: T[dV]P[Sar][NMeV] / II: T[dV]P[Sar][NMeV]; ester I:1-I:C, II:1-II:C; linker I:N-II:N via Actinocin(9to1))
increase of steady-state p115HEF1 and p105HEF1 after 3 hrs of TGF-β stimulation [3]: can be inhibited

CC(=O)N[C@@H](CSC(=O)[C@]1([C@@H](O)C(C)C)NC(=O)[C@H](C)[C@@H]1O)C(=O)O [lactacystin]
biological activities of BMPs and TGF-beta [4]: able to inhibit
EC50 ([1]; Sympathetic neuron, rat sympathetic neurons, read-out: EC50 for the inhibitory activity on OP-1 induced dendritic growth): ~0.1 µM
OP-1 induced dendritic growth ([1]; added later than 3 hrs after OP-1): resistance to the inhibitory effects developed after 3 hrs and are apparent after 8 hrs
OP-1 induced dendritic growth ([1]; added within 3 hrs of OP-1 exposure): fully inhibited
ability to form dendrites in the presence of OP-1 or BMP-6 ([1]; pretreatment for 4 hours): concentration-dependent decrease
axonal growth or cell survival ([1]; rat sympathetic neurons): did not affect
ALK3Q233D induced decrease of SNIP-1 protein level [2]: reversed
activity of other proteases [5]: does not inhibit
Smad3-induced reduction (degradation) of HEF1 protein level [6]: blocked

TGF-β1: prototypical member of the TGFβ family of cytokines, exogenously administered
neuroprotection ([7]; 0.5 or 50 ng ICV): no neuroprotection
CA1 pyramidal cell survival ([7]; same amount (4 ng) by ICV): 48%
pyramidal cell survival ([7]; single 4 ng intrahippocampal injection 1 h prior to TFGI, assessed 7 days after): 50%
decrease in ischemic area of the neocortex [8]: ≈ 10%
deficits in water maze learning ability and asymmetry in somatosensory functions ([9]; 10 ng ICV, first 10 days after injury): improved
intensity of microglial activation ([9]; 10 ng, 48 hours after ischemic injury): significantly reduced
neuroprotection ([9]; 2 or 50 ng on the same schedule): did not provide significant neuroprotection
area of cortical infarction ([9]; dose response): bell-shaped dose-response effect
neuroprotection in cortex, thalamus, striatum and dentate gyrus ([9]; single ICV dose of 10 ng 2 hours after ischemic injury, assessed 5 days after): significant neuroprotection
CA1-CA4 hippocampal neurons ([9]; single ICV dose of 10 ng 2 hours after ischemic injury): not protected

TGF-β
HEF1 mRNA [10]: induction of HEF1 mRNA
steady-state levels of p115 and p105 HEF1 [11]: started to decrease after 30 min exposure
time for pulse-labeled p105HEF1 to be reduced to basal level ([11]; TGF-β-stimulated, 30 min pulse): ≤ 60 min
p105HEF1 level ([11]; after 3 hrs of TGF-β treatment): greatly reduced
p115HEF1 level ([11]; after 3 hrs of TGF-β treatment): almost undetectable
exposure after which decrease of endogenous p115HEF1 was detected [3]: 15 min
steady-state level of p115HEF1 and p105HEF1 ([3]; after 3 hrs of TGF-β stimulation): increased
level of HEF1 mRNA, Northern blot ([3]; as early as 1 hr after treatment): dramatically increased

N-acetyl-L-Leucinyl-L-Leucinal-L-norleucinal [LLnL]
biological activities of BMPs and TGF-beta [4]: able to inhibit
inhibition of OP-1 activity, relative concentration ([1]; LLnL versus LLM): inhibited OP-1 activity at lower concentrations than LLM
inhibition of OP-1 induced dendritic growth [1]: Inhibition of OP-1 induced dendritic growth was also observed
ALK3Q233D induced decrease of SNIP-1 protein level [2]: reversed
TGF-β induced decrease of endogenous HEF1 [3]: able to block
Smad3-induced reduction (degradation) of HEF1 protein level [6]: able to block
Smad3N-mediated reduction of p115HEF1 ([6]; HEF1 co-expressed with Smad3N): blocked
potency as inhibitor of proteasome activity [12]: more potent inhibitor of proteasome activity than LLM
